Experimental data from patent publication US20210045385A1, “PYRIDAZINONE-SUBSTITUTED KETOXIMES AS HERBICIDES” (FMC Corporation, priority 2018, published 2021).

Experiments:
Type in all cases: in vivo
[1] = system: ragweed (common ragweed, Ambrosia elatior); test: Test A postemergence, visual plant response rating
Source text: (§1) Seeds of plant species selected from barnyardgrass (Echinochloa crus-galli), kochia (Kochia scoparia), ragweed (common ragweed, Ambrosia elatior), Italian ryegrass (Lolium multiflorum), foxtail, giant (giant foxtail, Setaria faberii), foxtail, green (green foxtail, Setaria viridis), and pigweed (Amaranthus retroflexus) were planted into a blend of loam soil and sand and treated preemergence with a directed soil spray using test chemicals formulated in a non-phytotoxic solvent mixture which included a surfactant.
(§2) At the same time, plants selected from these weed species and also wheat (Triticum aestivum), corn (Zea mays), blackgrass (Alopecurus myosuroides), and galium (catchweed bedstraw, Galium aparine) were planted in pots containing the same blend of loam soil and sand and treated with postemergence applications of test chemicals formulated in the same manner. Plants ranged in height from 2 to 10 cm and were in the one- to two-leaf stage for the postemergence treatment. Treated plants and untreated controls were maintained in a greenhouse for approximately 10 days, after which time all treated plants were compared to untreated controls and visually evaluated for injury. Plant response ratings, summarized in Table A, are based on a 0 to 100 scale where 0 is no effect and 100 is complete control. A dash (-) response means no test result.

[2] = system: pigweed (Amaranthus retroflexus); test: Test A postemergence, visual plant response rating
Source text: as §1, §2

[3] = system: foxtail, giant (giant foxtail, Setaria faberii); test: Test A postemergence, visual plant response rating
Source text: as §1, §2

[4] = system: barnyardgrass (Echinochloa crus-galli); test: Test A postemergence, visual plant response rating
Source text: as §1, §2

corn (Zea mays) = test: Test A postemergence, visual plant response rating
Source text: as §1, §2

kochia (Kochia scoparia) [5] = test: Test A postemergence, visual plant response rating
Source text: as §1, §2

[6] = system: Italian ryegrass (Lolium multiflorum); test: Test A postemergence, visual plant response rating
Source text: as §1, §2

[7] = system: blackgrass (Alopecurus myosuroides); test: Test A postemergence, visual plant response rating
Source text: as §1, §2

[8] = system: galium (catchweed bedstraw, Galium aparine); test: Test A postemergence, visual plant response rating
Source text: as §1, §2

[9] = system: wheat (Triticum aestivum); test: Test A postemergence, visual plant response rating
Source text: as §1, §2

rice (Oryza sativa) = test: Test B flooded paddy test, visual plant response rating; conditions: 250 g ai/ha, Flood, applied to paddy water, 2-leaf stage, evaluated after 13 to 15 days
How it was run: (§3)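 Greenhouse paddy conditions applied: two-leaf plants, a 3 cm flood above the soil surface maintained throughout, and compound added to the water rather than the foliage. Plants were judged visually against controls at 13 to 15 days.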

[10] = system: sedge, umbrella (small-flower umbrella sedge, Cyperus difformis); test: as above; conditions: 250 g ai/ha, Flood, applied to paddy water, 2-leaf stage, evaluated after 13 to 15 days
How it was run: as §3

[11] = system: barnyardgrass (Echinochloa crus-galli); test: as above; conditions: 250 g ai/ha, Flood, applied to paddy water, 2-leaf stage, evaluated after 13 to 15 days
How it was run: as §3

[12] = system: ducksalad (Heteranhera limosa); test: as above; conditions: 250 g ai/ha, Flood, applied to paddy water, 2-leaf stage, evaluated after 13 to 15 days
How it was run: as §3

[13] = system: ragweed (common ragweed, Ambrosia elatior); test: Test A preemergence, visual plant response rating
How it was run: (§4)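 Greenhouse pot test in loam–sand soil mix: compound in a surfactant-containing non-phytotoxic solvent applied preemergence (directed soil spray) or postemergence (one- to two-leaf plants, 2–10 cm). Injury scored visually after ~10 days, 0–100.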

[14] = system: pigweed (Amaranthus retroflexus); test: Test A preemergence, visual plant response rating
How it was run: as §4

[15] = system: foxtail, giant (giant foxtail, Setaria faberii); test: Test A preemergence, visual plant response rating
How it was run: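 Ratings use a 0–100 visual scale (100 = complete control) against untreated controls, scored about 10 days after greenhouse treatment. Test chemicals were formulated in surfactant-containing non-phytotoxic solvent and applied either as soil spray after planting (preemergence) or onto one- to two-leaf, 2–10 cm plants (postemergence).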

[16] = system: barnyardgrass (Echinochloa crus-galli); test: Test A preemergence, visual plant response rating
How it was run: as §4

kochia (Kochia scoparia) [17] = test: Test A preemergence, visual plant response rating
How it was run: as §4

[18] = system: Italian ryegrass (Lolium multiflorum); test: Test A preemergence, visual plant response rating
How it was run: as §4

[19] = 500 g ai/ha, postemergence, 0 is no effect, 100 is complete control
[20] = Postemergence, 125 g ai/ha, 0 to 100 scale (0 no effect, 100 complete control)
[21] = 125 g ai/ha, preemergence, 0 to 100 scale, 0 no effect, 100 complete control
[22] = 500 g ai/ha Preemergence, approx. 10 days

CCO/N=C(\c1c(O)c(C)nn(C)c1=O)c1cccc2ccccc12 [Compound 79]
Ragweed plant response rating (0 to 100 scale) [1, 19]: 100 | Ragweed plant response rating [1, 20]: 90 | Pigweed plant response rating (0 to 100 scale) [2, 19]: 90 | Pigweed plant response rating [2, 20]: 80 | Foxtail, Giant plant response rating (0 to 100 scale) [3, 19]: 80 | Foxtail, Giant plant response rating [3, 20]: 60 | Barnyardgrass plant response rating (0 to 100 scale) [4, 19]: 90 | Barnyardgrass plant response rating [4, 20]: 40 | Corn plant response rating (0 to 100 scale) (corn (Zea mays); [19]): 20 | Corn plant response rating (corn (Zea mays); [20]): 10 | Kochia plant response rating (0 to 100 scale) (kochia (Kochia scoparia) [5]; [19]): 80 | Kochia plant response rating (kochia (Kochia scoparia) [5]; [20]): 70 | Ryegrass, Italian plant response rating (0 to 100 scale) [6, 19]: 30 | Ryegrass, Italian plant response rating [6, 20]: 30 | Blackgrass plant response rating (0 to 100 scale) [7, 19]: 80 | Blackgrass plant response rating [7, 20]: 70 | Galium plant response rating (0 to 100 scale) [8, 19]: 100 | Galium plant response rating [8, 20]: 90 | Wheat plant response rating (0 to 100 scale) [9, 19]: 0 | Wheat plant response rating [9, 20]: 0 | Plant response rating, Rice (0 to 100 scale, 0 is no effect, 100 is complete control) (rice (Oryza sativa)): 0 | Plant response rating, Sedge, Umbrella (0 to 100 scale, 0 is no effect, 100 is complete control) [10]: 0 | Plant response rating, Barnyardgrass (0 to 100 scale, 0 is no effect, 100 is complete control) [11]: 0 | Plant response rating, Ducksalad (0 to 100 scale, 0 is no effect, 100 is complete control) [12]: 0 | Ragweed plant response rating [13, 21]: 90 | Ragweed plant response rating (0 to 100 scale) [13, 22]: 100 | Pigweed plant response rating [14, 21]: 30 | Pigweed plant response rating (0 to 100 scale) [14, 22]: 100 | Foxtail, Giant plant response rating [15, 21]: 60 | Foxtail, Giant plant response rating (0 to 100 scale) [15, 22]: 90 | Barnyardgrass plant response rating [16, 21]: 70 | Barnyardgrass plant response rating (0 to 100 scale) [16, 22]: 80 | Kochia plant response rating (kochia (Kochia scoparia) [17]; [21]): 10 | Kochia plant response rating (0 to 100 scale) (kochia (Kochia scoparia) [17]; [22]): 70 | Ryegrass, Italian plant response rating [18, 21]: 30 | Ryegrass, Italian plant response rating (0 to 100 scale) [18, 22]: 60
